Assay results published in PubChem BioAssay AID1963432 (Molecular Pharmacology Branch, DTP, NCI, 2024).

System: SYO-1 complex spheroid growth, percent test/control
Experiment: Anticancer human tumor SYO-1 cell line growth inhibition [Asc];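 also: compound exposure lasted 7 days after spheroids grew 3 days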;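 as to viability, T/C: 100% = DMSO vehicle control viability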
Conditions: for IC50: curve of first compound; for viability, T/C: stronger effect = lower value
Outline: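 Spheroid model: tumor line + HUVEC + hMSC. Single agents and combinations; top conc. at/near clinical Cmax (10 microM if undetermined), half-log dilutions. DMSO stocks at 800-fold test concentration.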

[1] = second compound 0.0316 µM, first compound 0.00316 µM
[2] = second compound 0.0316 µM, first compound 0.01 µM
[3] = second compound 0.0316 µM, first compound 0.0316 µM
[4] = second compound 0.0316 µM, first compound 0.1 µM
[5] = second compound 0.0316 µM, first compound 0.316 µM
[6] = second compound 0.0316 µM, first compound 1 µM
[7] = second compound 0.1 µM, first compound 0.00316 µM
[8] = second compound 0.1 µM, first compound 0.01 µM
[9] = second compound 0.1 µM, first compound 0.0316 µM
[10] = second compound 0.1 µM, first compound 0.1 µM
[11] = second compound 0.1 µM, first compound 0.316 µM
[12] = second compound 0.1 µM, first compound 1 µM
[13] = second compound 0.316 µM, first compound 0.00316 µM
[14] = second compound 0.316 µM, first compound 0.01 µM
[15] = second compound 0.316 µM, first compound 0.0316 µM
[16] = second compound 0.316 µM, first compound 0.1 µM
[17] = second compound 0.316 µM, first compound 0.316 µM
[18] = second compound 0.316 µM, first compound 1 µM
[19] = second compound 1 µM, first compound 0.00316 µM
[20] = second compound 1 µM, first compound 0.01 µM
[21] = second compound 1 µM, first compound 0.0316 µM
[22] = second compound 1 µM, first compound 0.1 µM
[23] = second compound 1 µM, first compound 0.316 µM
[24] = second compound 1 µM, first compound 1 µM
[25] = second compound 3.16 µM, first compound 0.00316 µM
[26] = second compound 3.16 µM, first compound 0.01 µM
[27] = second compound 3.16 µM, first compound 0.0316 µM
[28] = second compound 3.16 µM, first compound 0.1 µM
[29] = second compound 3.16 µM, first compound 0.316 µM
[30] = second compound 3.16 µM, first compound 1 µM
[31] = second compound 10 µM, first compound 0.00316 µM
[32] = second compound 10 µM, first compound 0.01 µM
[33] = second compound 10 µM, first compound 0.0316 µM
[34] = second compound 10 µM, first compound 0.1 µM
[35] = second compound 10 µM, first compound 0.316 µM
[36] = second compound 10 µM, first compound 1 µM

Compound `COc1c(OCCCN2CCOCC2)ccc2c3n(c(=NC(=O)c4cnc(N)nc4)nc12)CCN3` + Cc1c(S(C)(=O)=O)c(-c2cc(F)cc(N3CCN(c4ccc(NS(=O)(=O)c5ccc(NC(CCN6CCC(C(=O)OCCCP(=O)(O)O)CC6)CSc6ccccc6)c(S(=O)(=O)C(F)(F)F)c5)cc4)CC3)c2)c(-c2ccc(Cl)cc2)n1C(C)C has an IC50 (second compound 0.0316 µM) of 652 nM, an IC50 (second compound 0.1 µM) of 596 nM and an IC50 (second compound 0.316 µM) of 509 nM. For the same compound, the IC50 (second compound 1 µM) was 452 nM, the IC50 (second compound 3.16 µM) was 300 nM and the IC50 (second compound 10 µM) was 194 nM. It also gave a viability, T/C [1] of 104%, a viability, T/C [2] of 93.8% and a viability, T/C [3] of 93.5%. The viability, T/C [4] was 83.1%, the viability, T/C [5] was 74.6% and the viability, T/C [6] was 36.4%. The viability, T/C [7] was 99.2%, the viability, T/C [8] was 97% and the viability, T/C [9] was 91.8%. For the same compound, the viability, T/C [10] was 80.3%, the viability, T/C [11] was 69.5% and the viability, T/C [12] was 35.6%. The viability, T/C [13] was 90.7%, the viability, T/C [14] was 98.3% and the viability, T/C [15] was 94.1%. The viability, T/C [16] was 82.4%, the viability, T/C [17] was 65.8% and the viability, T/C [18] was 28.5%. The viability, T/C [19] was 91.5%, the viability, T/C [20] was 100% and the viability, T/C [21] was 94.7%. For the same compound, the viability, T/C [22] was 87.5%, the viability, T/C [23] was 63.4% and the viability, T/C [24] was 20.5%. It also gave a viability, T/C [25] of 92.5%, a viability, T/C [26] of 91.1% and a viability, T/C [27] of 92.3%. The viability, T/C [28] was 78.1%, the viability, T/C [29] was 49% and the viability, T/C [30] was 11.6%. For the same compound, the viability, T/C [31] was 83.2%, the viability, T/C [32] was 88.7% and the viability, T/C [33] was 72.3%. For the same compound, the viability, T/C [34] was 62%, the viability, T/C [35] was 41.7% and the viability, T/C [36] was 6.85%.
`C=CC(=O)N1CCN(c2nc(=O)n(-c3c(C)ccnc3C(C)C)c3nc(-c4c(O)cccc4F)c(F)cc23)C(C)C1` (stereo unspecified) + CCN1C(C(=O)NC23CCC(C(=O)O)(CC2)CC3)C(c2cccc(Cl)c2F)C2(C(=O)Nc3cc(Cl)ccc32)C12CCCCC2 gave an IC50 (second compound 0.00949 µM) of over 10000 nM, an IC50 (second compound 0.03 µM) of over 10000 nM and an IC50 (second compound 0.0949 µM) of over 10000 nM. It also gave an IC50 (second compound 0.3 µM) of under 31.6 nM, an IC50 (second compound 0.949 µM) of under 31.6 nM and an IC50 (second compound 3 µM) of under 31.6 nM. The viability, T/C (second compound 0.00949 µM, first compound 0.0316 µM) was 101%, the viability, T/C (second compound 0.00949 µM, first compound 0.1 µM) was 104% and the viability, T/C (second compound 0.00949 µM, first compound 0.316 µM) was 103%. For the same compound, the viability, T/C (second compound 0.00949 µM, first compound 1 µM) was 103%, the viability, T/C (second compound 0.00949 µM, first compound 3.16 µM) was 92% and the viability, T/C (second compound 0.00949 µM, first compound 10 µM) was 89.1%. For the same compound, the viability, T/C (second compound 0.03 µM, first compound 0.0316 µM) was 98%, the viability, T/C (second compound 0.03 µM, first compound 0.1 µM) was 94.7% and the viability, T/C (second compound 0.03 µM, first compound 0.316 µM) was 96.7%. For the same compound, the viability, T/C (second compound 0.03 µM, first compound 1 µM) was 103%, the viability, T/C (second compound 0.03 µM, first compound 3.16 µM) was 97.6% and the viability, T/C (second compound 0.03 µM, first compound 10 µM) was 81.8%. It also gave a viability, T/C (second compound 0.0949 µM, first compound 0.0316 µM) of 78.5%, a viability, T/C (second compound 0.0949 µM, first compound 0.1 µM) of 84% and a viability, T/C (second compound 0.0949 µM, first compound 0.316 µM) of 76.7%. The viability, T/C (second compound 0.0949 µM, first compound 1 µM) was 79.4%, the viability, T/C (second compound 0.0949 µM, first compound 3.16 µM) was 75.9% and the viability, T/C (second compound 0.0949 µM, first compound 10 µM) was 56.2%. The viability, T/C (second compound 0.3 µM, first compound 0.0316 µM) was 29.8%, the viability, T/C (second compound 0.3 µM, first compound 0.1 µM) was 25.3% and the viability, T/C (second compound 0.3 µM, first compound 0.316 µM) was 25.2%. For the same compound, the viability, T/C (second compound 0.3 µM, first compound 1 µM) was 20.8%, the viability, T/C (second compound 0.3 µM, first compound 3.16 µM) was 21.3% and the viability, T/C (second compound 0.3 µM, first compound 10 µM) was 12.2%. The viability, T/C (second compound 0.949 µM, first compound 0.0316 µM) was 3.03%, the viability, T/C (second compound 0.949 µM, first compound 0.1 µM) was 4.04% and the viability, T/C (second compound 0.949 µM, first compound 0.316 µM) was 2.34%. It also gave a viability, T/C (second compound 0.949 µM, first compound 1 µM) of 2.88%, a viability, T/C (second compound 0.949 µM, first compound 3.16 µM) of 2.48% and a viability, T/C (second compound 0.949 µM, first compound 10 µM) of 2.88%. For the same compound, the viability, T/C (second compound 3 µM, first compound 0.0316 µM) was 1.34%, the viability, T/C (second compound 3 µM, first compound 0.1 µM) was 1.23% and the viability, T/C (second compound 3 µM, first compound 0.316 µM) was 1.3%. The viability, T/C (second compound 3 µM, first compound 1 µM) was 1.29%, the viability, T/C (second compound 3 µM, first compound 3.16 µM) was 1.12% and the viability, T/C (second compound 3 µM, first compound 10 µM) was 1.29%.
`O=C(c1ccc(F)c(F)c1Nc1ccc(I)cc1F)N1CC(O)([C@@H]2CCCCN2)C1` + Cc1c(S(C)(=O)=O)c(-c2cc(F)cc(N3CCN(c4ccc(NS(=O)(=O)c5ccc(NC(CCN6CCC(C(=O)OCCCP(=O)(O)O)CC6)CSc6ccccc6)c(S(=O)(=O)C(F)(F)F)c5)cc4)CC3)c2)c(-c2ccc(Cl)cc2)n1C(C)C was tested, and the IC50 (second compound 0.0316 µM) was over 1000 nM, the IC50 (second compound 0.1 µM) was over 1000 nM and the IC50 (second compound 0.316 µM) was over 1000 nM. The IC50 (second compound 1 µM) was over 1000 nM, the IC50 (second compound 3.16 µM) was over 1000 nM and the IC50 (second compound 10 µM) was over 1000 nM. The viability, T/C [1] was 98.2%, the viability, T/C [2] was 102% and the viability, T/C [3] was 106%. It also gave a viability, T/C [4] of 99.6%, a viability, T/C [5] of 110% and a viability, T/C [6] of 113%. For the same compound, the viability, T/C [7] was 95.3%, the viability, T/C [8] was 101% and the viability, T/C [9] was 97.1%. For the same compound, the viability, T/C [10] was 102%, the viability, T/C [11] was 103% and the viability, T/C [12] was 99.8%. The viability, T/C [13] was 95.7%, the viability, T/C [14] was 93.6% and the viability, T/C [15] was 94.2%. The viability, T/C [16] was 106%, the viability, T/C [17] was 99% and the viability, T/C [18] was 104%. The viability, T/C [19] was 91.6%, the viability, T/C [20] was 89.5% and the viability, T/C [21] was 100%. The viability, T/C [22] was 98.9%, the viability, T/C [23] was 102% and the viability, T/C [24] was 97.1%. For the same compound, the viability, T/C [25] was 91.9%, the viability, T/C [26] was 92.1% and the viability, T/C [27] was 87.2%. The viability, T/C [28] was 99.8%, the viability, T/C [29] was 101% and the viability, T/C [30] was 93.4%. The viability, T/C [31] was 85.8%, the viability, T/C [32] was 81.3% and the viability, T/C [33] was 92.2%. The viability, T/C [34] was 85.6%, the viability, T/C [35] was 71.8% and the viability, T/C [36] was 67.6%.
